In the Kinase Knowledgebase extract (Sharma et al. 2016):
pIC50: −log10 of the molar value.

Biological target: PIK3CA (human) (UniProt P42336)
Assay: Assessment of PIK3CA Kinase Activity

Chain of PIK3CA (human) (P42336 whole entry, looked up): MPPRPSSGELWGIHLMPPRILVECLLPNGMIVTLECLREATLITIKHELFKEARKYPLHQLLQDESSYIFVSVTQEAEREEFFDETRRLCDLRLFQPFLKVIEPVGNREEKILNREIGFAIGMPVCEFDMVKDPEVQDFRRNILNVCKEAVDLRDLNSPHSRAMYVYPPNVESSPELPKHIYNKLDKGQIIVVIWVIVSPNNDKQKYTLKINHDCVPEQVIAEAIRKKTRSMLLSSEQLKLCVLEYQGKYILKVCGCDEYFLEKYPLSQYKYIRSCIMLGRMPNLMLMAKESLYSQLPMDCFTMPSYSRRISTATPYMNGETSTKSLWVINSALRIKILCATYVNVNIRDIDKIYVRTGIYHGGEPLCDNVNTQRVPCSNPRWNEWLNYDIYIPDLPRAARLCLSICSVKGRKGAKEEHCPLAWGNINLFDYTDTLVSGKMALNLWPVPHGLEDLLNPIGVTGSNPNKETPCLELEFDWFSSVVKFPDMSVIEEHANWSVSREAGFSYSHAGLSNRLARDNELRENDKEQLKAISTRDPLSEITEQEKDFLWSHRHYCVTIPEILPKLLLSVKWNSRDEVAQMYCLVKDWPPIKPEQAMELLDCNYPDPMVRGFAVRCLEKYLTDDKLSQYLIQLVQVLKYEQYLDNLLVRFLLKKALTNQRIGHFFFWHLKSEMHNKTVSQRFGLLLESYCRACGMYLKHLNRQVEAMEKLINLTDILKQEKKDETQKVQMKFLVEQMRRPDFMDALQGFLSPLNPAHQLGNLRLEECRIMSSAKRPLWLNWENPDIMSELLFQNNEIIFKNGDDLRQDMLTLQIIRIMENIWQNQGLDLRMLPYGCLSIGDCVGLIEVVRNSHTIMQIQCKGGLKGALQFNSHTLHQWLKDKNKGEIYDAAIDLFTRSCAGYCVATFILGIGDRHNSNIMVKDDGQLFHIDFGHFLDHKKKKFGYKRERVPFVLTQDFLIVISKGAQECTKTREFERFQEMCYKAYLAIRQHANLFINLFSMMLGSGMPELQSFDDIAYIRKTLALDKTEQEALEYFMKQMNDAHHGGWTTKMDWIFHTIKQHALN

Q: `CS(=O)(=O)N1CCN(Cc2cc3nc(-c4cccc5c4cnn5CCCCC(=O)NO)nc(N4CCOCC4)c3s2)CC1` was tested. Which pIC50 did it give?
A: The pIC50 was less than 5.00.

Q: With `CN(Cc1cc2nc(-c3ccc(C#N)cc3)nc(N3CCOCC3)c2s1)c1ncc(C(=O)NO)cn1` as the molecule, how does the pIC50 read?
A: Its pIC50 is less than 5.00.

Q: How did the pIC50 turn out when `COc1ccc(Nc2nc(-c3cccc4[nH]ncc34)nc3cc(CN(C)c4ncc(C(=O)NO)cn4)sc23)cc1` was run?
A: Its pIC50 is less than 5.00.

Q: With `CN(Cc1cc2nc(-c3cccc(OCCO)c3)nc(N3CCOCC3)c2s1)c1ncc(C(=O)NO)cn1` as the molecule, how does the pIC50 read?
A: The pIC50 was greater than 7.00.

Q: With `CCN(CC)c1nc(-c2cccc3[nH]ncc23)nc2cc(CN(C)c3ncc(C(=O)NO)cn3)sc12` as the molecule, how does the pIC50 read?
A: Its pIC50 is less than 5.00.

Q: With `CN1CCN(c2nc(-c3cccc4[nH]ncc34)nc3cc(CN(C)c4ncc(C(=O)NO)cn4)sc23)CC1` as the molecule, how does the pIC50 read?
A: Its pIC50 is less than 5.00.

Q: `CN(Cc1cc2nc(-c3ccc(Cl)cc3)nc(N3CCOCC3)c2s1)c1ncc(C(=O)NO)cn1` was tested. Which pIC50 did it give?
A: Its pIC50 is less than 5.00.

Q: With `Nc1ccc(-c2nc(N3CCOCC3)c3sc(Nc4ncc(C(=O)NO)cn4)cc3n2)cc1` as the molecule, how does the pIC50 read?
A: The pIC50 was greater than 7.00.

Q: `CN(Cc1cc2nc(-c3ccc(N)c(C#N)c3)nc(N3CCOCC3)c2s1)c1ncc(C(=O)NO)cn1` was tested. Which pIC50 did it give?
A: The pIC50 was 6.00 to 7.00.

Q: `CNc1ccc(-c2nc(N3CCOCC3)c3sc(CN(C)c4ncc(C(=O)NO)cn4)cc3n2)cc1` was tested. Which pIC50 did it give?
A: The pIC50 was less than 5.00.

Q: `CN(Cc1cc2nc(-c3ccc(O)nc3)nc(N3CCOCC3)c2s1)c1ncc(C(=O)NO)cn1` was tested. Which pIC50 did it give?
A: The pIC50 was 6.00 to 7.00.

Q: `Cn1c(CNCc2cc3nc(-c4ccc(N)cc4)nc(N4CCOCC4)c3s2)nc2cc(C=CC(=O)NO)ccc21` was tested. Which pIC50 did it give?
A: Its pIC50 is 6.00 to 7.00.

Q: With `COc1ccc(-c2nc(N3CCOCC3)c3sc(C(C)(C)Nc4ncc(C(=O)NO)cn4)cc3n2)cn1` as the molecule, how does the pIC50 read?
A: Its pIC50 is greater than 7.00.

Q: With `CN(Cc1cc2nc(-c3cccc4[nH]c(=O)[nH]c34)nc(N3CCOCC3)c2s1)c1ncc(C(=O)NO)cn1` as the molecule, how does the pIC50 read?
A: Its pIC50 is 6.00 to 7.00.

Q: `Nc1ncc(-c2nc(N3CCOCC3)c3sc(NS(=O)(=O)c4cccc(/C=C/C(=O)NO)c4)cc3n2)cn1` was tested. Which pIC50 did it give?
A: The pIC50 was greater than 7.00.

Q: `Nc1ccc(-c2nc(N3CCOCC3)c3sc(CN(CCO)c4ncc(C(=O)NO)cn4)cc3n2)cc1` was tested. Which pIC50 did it give?
A: The pIC50 was greater than 7.00.

Q: With `CN(Cc1cc2nc(-c3cccc(NS(C)(=O)=O)c3)nc(N3CCOCC3)c2s1)c1ncc(C(=O)NO)cn1` as the molecule, how does the pIC50 read?
A: The pIC50 was less than 5.00.

Q: How did the pIC50 turn out when `Nc1ncc(-c2nc(N3CCOCC3)c3sc(NCCCCCC(=O)NO)cc3n2)cn1` was run?
A: The pIC50 was greater than 7.00.

Q: How did the pIC50 turn out when `CS(=O)(=O)N1CCN(Cc2cc3nc(-c4ccc(OCCCCC(=O)NO)cc4)nc(N4CCOCC4)c3s2)CC1` was run?
A: Its pIC50 is 6.00 to 7.00.

Q: How did the pIC50 turn out when `COc1ccc(-c2nc(N3CCOCC3)c3sc(Nc4ncc(C(=O)NO)cn4)cc3n2)cn1` was run?
A: Its pIC50 is greater than 7.00.

Q: How did the pIC50 turn out when `CN(Cc1cc2nc(-c3ccc(N)c(O)c3)nc(N3CCOCC3)c2s1)c1ncc(C(=O)NO)cn1` was run?
A: Its pIC50 is greater than 7.00.

Q: `CN(Cc1cc2nc(-c3cccc4[nH]ncc34)nc(N3CCNCC3)c2s1)c1ncc(C(=O)NO)cn1` was tested. Which pIC50 did it give?
A: The pIC50 was less than 5.00.

Q: With `Nc1ncc(-c2nc(N3CCOCC3)c3sc(NCCCCCCC(=O)NO)cc3n2)cn1` as the molecule, how does the pIC50 read?
A: Its pIC50 is greater than 7.00.

Q: `CS(=O)(=O)N1CCN(Cc2cc3nc(-c4cccc5nn(CCCCCCC(=O)NO)cc45)nc(N4CCOCC4)c3s2)CC1` was tested. Which pIC50 did it give?
A: Its pIC50 is less than 5.00.

Q: `CNc1ncc(-c2nc(N3CCOCC3)c3sc(NCCCCC(=O)NO)cc3n2)cn1` was tested. Which pIC50 did it give?
A: Its pIC50 is greater than 7.00.

Q: How did the pIC50 turn out when `O=C(NO)c1ccc2c(ccn2Cc2cc3nc(-c4cccc5[nH]ncc45)nc(N4CCOCC4)c3s2)c1` was run?
A: The pIC50 was less than 5.00.

Q: How did the pIC50 turn out when `CN(Cc1cc2nc(-c3ccc4c(c3)CCN4)nc(N3CCOCC3)c2s1)c1ncc(C(=O)NO)cn1` was run?
A: The pIC50 was less than 5.00.

Q: How did the pIC50 turn out when `CN(Cc1cc2nc(-c3cccc4c3CC(=O)N4)nc(N3CCOCC3)c2s1)c1ncc(C(=O)NO)cn1` was run?
A: The pIC50 was less than 5.00.

Q: How did the pIC50 turn out when `CNc1ccc(-c2nc(N3CCOCC3)c3sc(C(C)(C)N(C)c4ncc(C(=O)NO)cn4)cc3n2)cn1` was run?
A: The pIC50 was 6.00 to 7.00.

Q: With `CS(=O)(=O)N1CCN(Cc2cc3nc(-c4cccc5c4cnn5CCCCCCC(=O)NO)nc(N4CCOCC4)c3s2)CC1` as the molecule, how does the pIC50 read?
A: The pIC50 was less than 5.00.

Q: `COCCNc1nc(-c2cccc3[nH]ncc23)nc2cc(CN(C)c3ncc(C(=O)NO)cn3)sc12` was tested. Which pIC50 did it give?
A: The pIC50 was less than 5.00.

Q: With `COc1cccc(Nc2nc(-c3cccc4[nH]ncc34)nc3cc(CN(C)c4ncc(C(=O)NO)cn4)sc23)c1` as the molecule, how does the pIC50 read?
A: Its pIC50 is less than 5.00.

Q: How did the pIC50 turn out when `COc1ncc(-c2nc(N3CCOCC3)c3sc(C(C)N(C)c4ncc(C(=O)NO)cn4)cc3n2)cn1` (stereo unspecified) was run?
A: The pIC50 was greater than 7.00.

Q: How did the pIC50 turn out when `Cc1ncc(-c2nc(N3CCOCC3)c3sc(CN(CCO)c4ncc(C(=O)NO)cn4)cc3n2)s1` was run?
A: Its pIC50 is 6.00 to 7.00.

Q: How did the pIC50 turn out when `CN(Cc1cc2nc(-c3ccc(N)c(CO)c3)nc(N3CCOCC3)c2s1)c1ncc(C(=O)NO)cn1` was run?
A: Its pIC50 is greater than 7.00.

Q: How did the pIC50 turn out when `COc1ccc(-c2nc(N3CCOCC3)c3sc(NS(=O)(=O)c4cccc(/C=C/C(=O)NO)c4)cc3n2)cn1` was run?
A: Its pIC50 is greater than 7.00.

Q: How did the pIC50 turn out when `Cc1ncc(-c2nc(N3CCOCC3)c3sc(NCCCCC(=O)NO)cc3n2)cn1` was run?
A: Its pIC50 is greater than 7.00.

Q: With `COc1ccc(-c2nc(N3CCOCC3)c3sc(NCCCCCC(=O)NO)cc3n2)cn1` as the molecule, how does the pIC50 read?
A: The pIC50 was greater than 7.00.

Q: How did the pIC50 turn out when `CN(Cc1cc2nc(-c3ccc4c(c3)CC(=O)N4)nc(N3CCOCC3)c2s1)c1ncc(C(=O)NO)cn1` was run?
A: Its pIC50 is less than 5.00.

Q: How did the pIC50 turn out when `CN(Cc1cc2nc(-c3ccc(N)cc3Cl)nc(N3CCOCC3)c2s1)c1ncc(C(=O)NO)cn1` was run?
A: Its pIC50 is greater than 7.00.

Q: How did the pIC50 turn out when `CC(C)c1ccc(-c2nc(N3CCOCC3)c3sc(CN(C)c4ncc(C(=O)NO)cn4)cc3n2)cc1` was run?
A: Its pIC50 is less than 5.00.

Q: With `COc1ncc(-c2nc(N3CCOCC3)c3sc(C(C)(C)Nc4ncc(C(=O)NO)cn4)cc3n2)cn1` as the molecule, how does the pIC50 read?
A: Its pIC50 is greater than 7.00.

Q: With `CN(Cc1cc2nc(-c3ccc(N4CCCC4)cc3)nc(N3CCOCC3)c2s1)c1ncc(C(=O)NO)cn1` as the molecule, how does the pIC50 read?
A: Its pIC50 is less than 5.00.

Q: With `CN(Cc1cc2nc(-c3cnc(OCc4ccccc4)nc3)nc(N3CCOCC3)c2s1)c1ncc(C(=O)NO)cn1` as the molecule, how does the pIC50 read?
A: The pIC50 was 6.00 to 7.00.

Q: `CNCCOc1ccc(-c2nc(N3CCOCC3)c3sc(CN(C)c4ncc(C(=O)NO)cn4)cc3n2)cn1` was tested. Which pIC50 did it give?
A: The pIC50 was less than 5.00.

Q: With `CS(=O)(=O)N1CCN(Cc2cc3nc(-c4cccc5nn(CCCCCC(=O)NO)cc45)nc(N4CCOCC4)c3s2)CC1` as the molecule, how does the pIC50 read?
A: The pIC50 was less than 5.00.

Q: How did the pIC50 turn out when `CN(Cc1cc2nc(-c3ccc(OCCN)nc3)nc(N3CCOCC3)c2s1)c1ncc(C(=O)NO)cn1` was run?
A: Its pIC50 is less than 5.00.

Q: How did the pIC50 turn out when `COc1ccc(-c2nc(N3CCOCC3)c3sc(C(C)N(C)c4ncc(C(=O)NO)cn4)cc3n2)cn1` (stereo unspecified) was run?
A: Its pIC50 is greater than 7.00.

Q: `CS(=O)(=O)N1CCN(Cc2cc3nc(-c4cccc5c4cnn5CCCCCC(=O)NO)nc(N4CCOCC4)c3s2)CC1` was tested. Which pIC50 did it give?
A: Its pIC50 is less than 5.00.

Q: `CC(C)OC(=O)Nc1ccc(-c2nc(N3CCOCC3)c3sc(CN(C)c4ncc(C(=O)NO)cn4)cc3n2)cc1` was tested. Which pIC50 did it give?
A: The pIC50 was less than 5.00.

Q: `COc1ccc(-c2nc(N3CCOCC3)c3sc(CN(CCO)c4ncc(C(=O)NO)cn4)cc3n2)cn1` was tested. Which pIC50 did it give?
A: The pIC50 was greater than 7.00.

Q: With `CCCc1nc2cc(C=CC(=O)NO)ccc2n1CCNCc1cc2nc(-c3ccc(NC)nc3)nc(N3CCOCC3)c2s1` as the molecule, how does the pIC50 read?
A: The pIC50 was greater than 7.00.

Q: With `COc1ncc(-c2nc(N3CCOCC3)c3sc(C(C)(C)N(C)c4ncc(C(=O)NO)cn4)cc3n2)cn1` as the molecule, how does the pIC50 read?
A: The pIC50 was 6.00 to 7.00.

Q: `CC(=NO)c1ccc(F)c(-c2nc(N3CCOCC3)c3sc(CN(C)c4ncc(C(=O)NO)cn4)cc3n2)c1` was tested. Which pIC50 did it give?
A: Its pIC50 is 6.00 to 7.00.

Q: `Nc1ccc(-c2nc(N3CCOCC3)c3sc(S(=O)(=O)NCC4CCN(c5ncc(C(=O)NO)cn5)CC4)cc3n2)cc1` was tested. Which pIC50 did it give?
A: Its pIC50 is 6.00 to 7.00.

Q: With `O=C(C=Cc1cccc(S(=O)(=O)Nc2cc3nc(-c4cccc5[nH]ncc45)nc(N4CCOCC4)c3s2)c1)NO` as the molecule, how does the pIC50 read?
A: The pIC50 was greater than 7.00.

Q: How did the pIC50 turn out when `CNc1ccc(-c2nc(N3CCOCC3)c3sc(CN(C)Cc4nc5cc(C=CC(=O)NO)ccc5n4C)cc3n2)cn1` was run?
A: The pIC50 was greater than 7.00.

Q: With `CC(=NO)c1cccc(-c2nc(N3CCOCC3)c3sc(CN(C)c4ncc(C(=O)NO)cn4)cc3n2)c1` as the molecule, how does the pIC50 read?
A: Its pIC50 is 6.00 to 7.00.

Q: With `CN(Cc1cc2nc(-c3cc(O)ccc3F)nc(N3CCOCC3)c2s1)c1ncc(C(=O)NO)cn1` as the molecule, how does the pIC50 read?
A: Its pIC50 is greater than 7.00.

Q: `COc1ncc(-c2nc(N3CCOCC3)c3sc(CN(C)c4ncc(C(=O)NO)cn4)cc3n2)cn1` was tested. Which pIC50 did it give?
A: Its pIC50 is greater than 7.00.

Q: With `CN(C)CCOc1ccc(-c2nc(N3CCOCC3)c3sc(CN(C)c4ncc(C(=O)NO)cn4)cc3n2)cn1` as the molecule, how does the pIC50 read?
A: Its pIC50 is less than 5.00.
